Source: paper PMC7864049, “Co-crystal structures of HIV TAR RNA bound to lab-evolved proteins show key roles for arginine relevant to the design of cyclic peptide TAR inhibitors” (The Journal of Biological Chemistry, 2021)
Entries after “also recorded” stand apart in the source; their conditions may differ. Where two headings read alike, the source gives them in different places.

Columns and labels:
HIV-1 TAR RNA (27-mer) = type: binding
[1] = test system: Tat ARM binding to HIV-1 TAR RNA
[2] = test system: Tat ARM binding to HIV-1 TAR RNA; remark: listed apart in the source
HIV TAR RNA = conditions: cited from earlier work
Excerpt: (§1) The precise role of arginine in Tat-mediated RNA recognition came into focus only recently based on the high-resolution NMR analysis of an HIV Tat-ARM in complex with human 7SK RNA and HIV TAR RNA ([19]). When bound to host 7SK, Tat adopts a bent conformation wherein a cluster of three arginines specifically recognizes the Hoogsteen edges of guanine nucleobases. Conversely, the Tat-ARM adopts a more linear conformation that uses two arginines to recognize the Hoogsteen edges of TAR nucleobases. Remarkably, these different modes of base recognition use distinctive arginines from the same Tat pe ...

human 7SK RNA = conditions: cited from earlier work
Excerpt: as §1

Ac-GISYGRKKRRQRRRAHQ-NH2 [Tat ARM, reference compound]
Kd (HIV-1 TAR RNA (27-mer)): 166 ± 21 nM | ΔG° (HIV-1 TAR RNA (27-mer)): -9.2 ± 0.1 kcal/mol | ΔH° (HIV-1 TAR RNA (27-mer)): −4.5 ± 0.6 kca/mol | −TΔS° (HIV-1 TAR RNA (27-mer)): -4.8 ± 0.7 kcal/mol | Kd (HIV-1 TAR RNA (27-mer); 20 °C): 135 ± 31 nM | heats of binding of Tat ARM [1]: no significant heats of binding; also recorded: no appreciable heats of binding | Tat binding mode in presence of TB-LP-6.9 [2]: non- identical two- site binding | affinity (HIV TAR RNA): nanomolar affinity | affinity (human 7SK RNA): nanomolar affinity
